The values below are quoted from earlier work in US11053249B2, “Proteasome inhibiting β-lactam prodrugs useful for the treatment of cancer and neurodegenerative disorders” (Vita Api, priority 2016, dated 2021).

For this data set the following is noted: Hogan & Corey, 2005, 2007.

In the case of `CC(C)C(O)[C@@]12NC(=O)[C@H](CCCl)[C@@H]1NC2=O` (stereo partly drawn) [initial β-lactam], the “experimental infrared C═O stretching frequency” value was 1756 cm⁻¹.
